Test results from patent US8871753B2, “Macrocyclic compounds and their use as kinase inhibitors” (Incyte Corporation, priority 2008, dated 2014).
Structures can show the parent of a compound that is named as a salt. Where two headings read alike, the source gives them in different places.

What was measured:
Type in all cases: biochemical
TYK2 = TYK2 (Homo sapiens, UniProt P29597); assay: TYK2 kinase inhibition (Table A1)
[1] = target: T1, human JAK2 (a.a. 828-1132) (Homo sapiens, UniProt O60674); assay: In vitro JAK kinase assay (HTRF, phosphorylation of a biotinylated peptide), JAK2
T1 construct: JAK2 (a.a. 828-1132); His tag (N); made in house; host or cells: insect cells (baculovirus)
T1 sequence (O60674 828-1132): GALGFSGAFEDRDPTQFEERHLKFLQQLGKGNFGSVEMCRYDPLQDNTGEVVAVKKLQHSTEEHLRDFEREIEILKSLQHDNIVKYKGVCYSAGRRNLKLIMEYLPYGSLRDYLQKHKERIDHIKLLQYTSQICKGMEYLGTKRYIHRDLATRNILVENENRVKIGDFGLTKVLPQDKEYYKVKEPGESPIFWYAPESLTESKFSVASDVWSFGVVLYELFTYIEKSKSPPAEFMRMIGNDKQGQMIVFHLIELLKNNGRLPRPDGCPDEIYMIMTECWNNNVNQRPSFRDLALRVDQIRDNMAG
Procedure, shortened: (§1)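 Phosphorylation of a biotinylated peptide by the JAK kinase domain, detected by HTRF with Eu-Py20 and SA-APC. ATP was 90 μM for JAK1, 30 μM for JAK2 and 3 μM for JAK3. Reactions ran 1 h at room temperature and were stopped with EDTA, followed by 40 min antibody binding.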

[2] = target: T2, human JAK3 (a.a. 781-1124) (Homo sapiens, UniProt P52333); assay: In vitro JAK kinase assay (HTRF, phosphorylation of a biotinylated peptide), JAK3
T2 construct: JAK3 (a.a. 781-1124); His tag (N); made in house; host or cells: insect cells (baculovirus)
T2 sequence (P52333 781-1124): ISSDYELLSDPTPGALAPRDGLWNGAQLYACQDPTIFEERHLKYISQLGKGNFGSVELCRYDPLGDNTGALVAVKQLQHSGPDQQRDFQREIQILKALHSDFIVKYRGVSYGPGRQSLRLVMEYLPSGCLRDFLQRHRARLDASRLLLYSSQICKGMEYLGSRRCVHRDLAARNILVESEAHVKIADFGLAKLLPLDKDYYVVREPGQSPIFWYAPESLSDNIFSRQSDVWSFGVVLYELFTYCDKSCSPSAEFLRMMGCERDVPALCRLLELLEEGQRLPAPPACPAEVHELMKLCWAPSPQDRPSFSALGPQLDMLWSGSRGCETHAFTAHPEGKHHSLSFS
Procedure, shortened: as §1

[3] = target: T3, Recombinant Human Anaplastic Lymphoma Kinase (Homo sapiens, UniProt Q9UM73); assay: ALK HTRF kinase assay
T3 construct: purchased Invitrogen, Carlsbad, Calif
T3 sequence (Q9UM73 19-1620): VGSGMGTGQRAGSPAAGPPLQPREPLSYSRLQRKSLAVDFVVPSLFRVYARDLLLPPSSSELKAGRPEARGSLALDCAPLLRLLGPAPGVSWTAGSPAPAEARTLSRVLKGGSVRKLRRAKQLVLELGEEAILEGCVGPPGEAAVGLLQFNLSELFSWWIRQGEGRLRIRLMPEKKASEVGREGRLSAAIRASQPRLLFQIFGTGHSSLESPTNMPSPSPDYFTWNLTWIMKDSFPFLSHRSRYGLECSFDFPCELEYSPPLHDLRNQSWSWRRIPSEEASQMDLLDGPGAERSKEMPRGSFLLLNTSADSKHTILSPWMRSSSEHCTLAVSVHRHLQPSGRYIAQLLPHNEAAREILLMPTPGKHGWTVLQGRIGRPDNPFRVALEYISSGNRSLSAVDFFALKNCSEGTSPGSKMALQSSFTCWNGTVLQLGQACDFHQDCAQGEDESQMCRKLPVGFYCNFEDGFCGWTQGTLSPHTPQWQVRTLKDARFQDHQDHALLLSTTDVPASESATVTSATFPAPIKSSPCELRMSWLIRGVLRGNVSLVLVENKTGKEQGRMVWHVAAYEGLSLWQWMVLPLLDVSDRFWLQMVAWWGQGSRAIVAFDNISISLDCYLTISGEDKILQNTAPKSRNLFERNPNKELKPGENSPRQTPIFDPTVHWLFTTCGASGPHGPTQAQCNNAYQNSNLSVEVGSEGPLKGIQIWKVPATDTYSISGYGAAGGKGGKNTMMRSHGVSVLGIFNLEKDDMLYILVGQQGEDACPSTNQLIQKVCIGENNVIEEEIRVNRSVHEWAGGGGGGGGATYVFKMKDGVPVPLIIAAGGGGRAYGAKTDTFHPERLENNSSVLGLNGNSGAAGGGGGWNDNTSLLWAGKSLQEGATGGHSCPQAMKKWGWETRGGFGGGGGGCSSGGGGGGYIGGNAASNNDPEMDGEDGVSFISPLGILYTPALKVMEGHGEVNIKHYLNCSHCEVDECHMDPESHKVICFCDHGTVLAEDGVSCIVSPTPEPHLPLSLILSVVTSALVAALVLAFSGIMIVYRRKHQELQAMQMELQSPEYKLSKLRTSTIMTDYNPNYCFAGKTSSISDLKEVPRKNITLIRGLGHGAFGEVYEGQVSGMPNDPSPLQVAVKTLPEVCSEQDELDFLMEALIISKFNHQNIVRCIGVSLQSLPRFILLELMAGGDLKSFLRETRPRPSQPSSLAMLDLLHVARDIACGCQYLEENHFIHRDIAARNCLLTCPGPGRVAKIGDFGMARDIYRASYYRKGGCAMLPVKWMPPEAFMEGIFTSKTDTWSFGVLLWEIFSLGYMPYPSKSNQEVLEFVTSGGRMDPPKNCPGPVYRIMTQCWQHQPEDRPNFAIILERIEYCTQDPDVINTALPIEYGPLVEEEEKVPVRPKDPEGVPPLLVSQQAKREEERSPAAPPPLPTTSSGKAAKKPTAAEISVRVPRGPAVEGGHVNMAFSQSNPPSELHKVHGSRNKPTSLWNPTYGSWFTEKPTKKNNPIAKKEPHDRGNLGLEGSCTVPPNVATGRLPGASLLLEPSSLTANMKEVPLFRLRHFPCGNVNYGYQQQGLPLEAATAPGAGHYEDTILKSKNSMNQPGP
Procedure, shortened: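 Recombinant human ALK with biotinylated peptide substrate; phosphorylation detected by HTRF using Eu-labelled anti-phosphotyrosine antibody and streptavidin-allophycocyanin. IC50 from a sigmoidal fit with Hill slope.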

[4] = target: T4, human JAK1 (a.a. 837-1142) (Homo sapiens, UniProt P23458); assay: In vitro JAK kinase assay (HTRF, phosphorylation of a biotinylated peptide), JAK1; conditions: read-out: JAK1 IC50
T4 construct: human JAK1 (a.a. 837-1142); His tag (N); made in house; host or cells: insect cells (baculovirus)
T4 sequence (P23458 849-1154): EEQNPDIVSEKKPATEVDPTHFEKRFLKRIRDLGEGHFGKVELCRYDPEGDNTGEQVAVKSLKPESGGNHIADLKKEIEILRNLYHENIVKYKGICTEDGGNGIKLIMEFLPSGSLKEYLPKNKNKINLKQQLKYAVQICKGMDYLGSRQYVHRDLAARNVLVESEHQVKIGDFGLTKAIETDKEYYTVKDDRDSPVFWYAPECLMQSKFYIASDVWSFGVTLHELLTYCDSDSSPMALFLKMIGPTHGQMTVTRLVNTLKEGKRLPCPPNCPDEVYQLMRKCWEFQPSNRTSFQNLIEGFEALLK
Procedure, shortened: as §1

[5] = method AA1 (30 μM ATP) or AA2 (1000 μM ATP), not stated per value
[6] = method AA1 (3 μM ATP) or AA2 (1000 μM ATP), not stated per value
[7] = compound at 500 nM or 1 mM, 90 μM ATP
[8] = method AA1 (90 μM ATP) or AA2 (1000 μM ATP), not stated per value
[9] = compound at a concentration of 500 nM or 1 mM (not specified), cells shown as percentage
[10] = percentage inhibition of the example compound at a concentration of 500 nM or 1 mM (not specified which)

Chain of TYK2 (P29597 whole entry): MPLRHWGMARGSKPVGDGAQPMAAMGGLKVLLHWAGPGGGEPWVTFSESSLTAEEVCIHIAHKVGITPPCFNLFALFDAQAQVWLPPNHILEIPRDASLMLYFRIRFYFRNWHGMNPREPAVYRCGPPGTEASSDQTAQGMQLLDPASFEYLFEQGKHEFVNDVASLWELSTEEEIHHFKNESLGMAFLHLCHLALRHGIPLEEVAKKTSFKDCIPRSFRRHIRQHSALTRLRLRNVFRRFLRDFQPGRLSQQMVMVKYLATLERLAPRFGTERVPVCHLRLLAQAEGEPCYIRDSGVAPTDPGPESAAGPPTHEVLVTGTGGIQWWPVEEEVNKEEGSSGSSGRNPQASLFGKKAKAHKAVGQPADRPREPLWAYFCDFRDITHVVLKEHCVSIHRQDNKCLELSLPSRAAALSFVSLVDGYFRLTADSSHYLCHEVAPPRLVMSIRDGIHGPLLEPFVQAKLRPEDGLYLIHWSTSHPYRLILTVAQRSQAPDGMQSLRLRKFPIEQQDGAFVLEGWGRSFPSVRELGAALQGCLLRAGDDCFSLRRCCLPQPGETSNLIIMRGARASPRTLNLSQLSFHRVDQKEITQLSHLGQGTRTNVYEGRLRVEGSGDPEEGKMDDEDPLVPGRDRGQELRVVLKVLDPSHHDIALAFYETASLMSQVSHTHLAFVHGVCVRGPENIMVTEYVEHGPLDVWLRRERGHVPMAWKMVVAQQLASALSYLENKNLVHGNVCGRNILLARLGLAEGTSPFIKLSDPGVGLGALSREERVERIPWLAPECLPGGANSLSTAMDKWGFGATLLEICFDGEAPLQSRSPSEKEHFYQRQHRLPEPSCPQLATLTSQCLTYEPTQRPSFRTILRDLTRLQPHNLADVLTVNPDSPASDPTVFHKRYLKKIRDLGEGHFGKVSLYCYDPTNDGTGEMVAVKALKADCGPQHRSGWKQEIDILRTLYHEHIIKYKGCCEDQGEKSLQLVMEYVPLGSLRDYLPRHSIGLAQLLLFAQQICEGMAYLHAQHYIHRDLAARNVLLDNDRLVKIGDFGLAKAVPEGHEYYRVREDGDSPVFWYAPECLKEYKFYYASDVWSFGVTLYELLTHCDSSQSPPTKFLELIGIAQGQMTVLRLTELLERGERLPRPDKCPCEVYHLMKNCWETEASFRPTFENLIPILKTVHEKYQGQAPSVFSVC

Work on `O=C(CC1CCN(C(=O)NC2CCCC2)CC1)Nc1ccc2cc1CCc1cccc(c1)Nc1ncc(Cl)c(n1)N2` [Example A64, 4-(2-{[6-Chloro-2,4,8,22-tetraazatetracyclo[14.3.1.1(3,7).1(9,13)]docosa-1(20),3(22),4,6,9(21),10,12,16,18-nonaen-12-yl]amino}-2-oxoethyl)-N-cyclopentylpiperidine-1-carboxamide trifluoroacetate] yielded an IC50 (TYK2) of 0.023 µM, an IC50 [1, 5] of 0.0065 µM and an IC50 [2, 6] of 0.03 µM. The “ALK % of inhibition at a concentration of 500 nM or 1 mM” value (from here on “ALK % of inhibition”) [3, 7] was 23% and the IC50 [4, 8] was 0.013 µM.

With `CC(C)C(=O)N1CC[C@H](NC(=O)Nc2ccc3cc2CCc2cccc(c2)Nc2ncc(Cl)c(n2)N3)C1` [Example B229, N-[6-Chloro-2,4,8,22-tetraazatetracyclo[14.3.1.1(3,7).1(9,13)]docosa-1(20),3(22),4,6,9(21),10,12,16,18-nonaen-12-yl]-N′-[(3S)-1-isobutyrylpyrrolidin-3-yl]urea trifluoroacetate] the IC50 (TYK2; Table B1) was 0.019 µM, the IC50 ([1]; Table B1) was 0.017 µM and the IC50 ([2]; Table B1) was 0.076 µM. For the same compound, the “ALK % of inhibition” value [3, 9] was 6.5% and the IC50 ([4]; Table B1) was 0.009 µM.

`O=C(NO)Nc1ccc2cc1CCc1cccc(c1)Nc1ncc(Cl)c(n1)N2` [Example B324, N-[6-Chloro-2,4,8,22-tetraazatetracyclo[14.3.1.1(3,7).1(9,13)]docosa-1(20),3(22),4,6,9(21),10,12,16,18-nonaen-12-yl]-N′-hydroxyurea trifluoroacetate] showed an IC50 (TYK2; Table B1) of 0.0028 µM, an IC50 ([1]; Table B1) of 0.056 µM and an IC50 ([2]; Table B1) of 0.0075 µM. For the same compound, the “ALK % of inhibition” value [3, 10] was 16% and the IC50 ([4]; Table B1) was 0.02 µM.

In the case of `N#Cc1c(F)cccc1N1CCC(CC(=O)Nc2ccc3cc2CCc2cncc(c2)Nc2ncc(Cl)c(n2)N3)CC1` [Example A234, N-[6-Chloro-2,4,8,18,22-pentaazatetracyclo[14.3.1.1(3,7).1(9,13)]docosa-1(20),3(22),4,6,9(21),10,12,16,18-nonaen-12-yl]-2-[1-(2-cyano-3-fluorophenyl)piperidin-4-yl]acetamide tris(trifluoroacetate)], the IC50 (TYK2) is reported as 0.072 µM, the IC50 [1, 5] is reported as 0.08 µM and the IC50 [2, 6] is reported as over 0.4 µM. For the same compound, the “ALK % of inhibition” value [3, 7] was 13% and the IC50 [4, 8] was 0.0015 µM.

`O=C(CC1CCNC1)Nc1ccc2cc1CCc1cncc(c1)Nc1ncc(Cl)c(n1)N2` (centres unmarked) [Example A105, N-[6-Chloro-2,4,8,18,22-pentaazatetracyclo[14.3.1.1(3,7).1(9,13)]docosa-1(20),3(22),4,6,9(21),10,12,16,18-nonaen-12-yl]-2-pyrrolidin-3-ylacetamide tris(trifluoroacetate)] showed an IC50 (TYK2) of 0.044 µM, an IC50 [1, 5] of 0.04 µM and an IC50 [2, 6] of 0.112 µM. For the same compound, the “ALK % of inhibition” value [3, 7] was 23% and the IC50 [4, 8] was 0.029 µM.

`Cc1ccnc(N2CCC(CC(=O)Nc3ccc4cc3CCc3cncc(c3)Nc3ncc(Cl)c(n3)N4)CC2)c1` [Example A176, N-[6-Chloro-2,4,8,18,22-pentaazatetracyclo[14.3.1.1(3,7).1(9,13)]docosa-1(20),3(22),4,6,9(21),10,12,16,18-nonaen-12-yl]-2-[1-(4-methylpyridin-2-yl)piperidin-4-yl]acetamide tris(trifluoroacetate)] gave an IC50 (TYK2) of over 0.2 µM, an IC50 [1, 5] of over 0.2 µM and an IC50 [2, 6] of over 0.2 µM. The “ALK % of inhibition” value [3, 7] was 25% and the IC50 [4, 8] was 0.051 µM.

`COc1cccc(S(=O)(=O)N2CCC(CC(=O)Nc3ccc4cc3CCc3cncc(c3)Nc3ncc(Cl)c(n3)N4)CC2)c1` [Example A196, N-[6-Chloro-2,4,8,18,22-pentaazatetracyclo[14.3.1.1(3,7).1(9,13)]docosa-1(20),3(22),4,6,9(21),10,12,16,18-nonaen-12-yl]-2-{1-[(3-methoxyphenyl)sulfonyl]piperidin-4-yl}acetamide bis(trifluoroacetate)] was tested, and the IC50 (TYK2) was over 0.2 µM, the IC50 [1, 5] was 0.1 µM and the IC50 [2, 6] was over 0.2 µM. For the same compound, the “ALK % of inhibition” value [3, 7] was 34% and the IC50 [4, 8] was 0.015 µM.

With `O=C(Nc1ccc2cc1CCc1cncc(c1)Nc1ncc(Cl)c(n1)N2)N1CCN(Cc2ccccc2)CC1` [Example B287, 4-Benzyl-N-[6-chloro-2,4,8,18,22-pentaazatetracyclo[14.3.1.1(3,7).1(9,13)]docosa-1(20),3(22),4,6,9(21),10,12,16,18-nonaen-12-yl]piperazine-1-carboxamidetris(trifluoroacetate)] the IC50 (TYK2; Table B1) was over 0.2 µM, the IC50 ([1]; Table B1) was 0.09 µM and the IC50 ([2]; Table B1) was over 0.2 µM. The “ALK % of inhibition” value [3, 9] was 46% and the IC50 ([4]; Table B1) was 0.015 µM.

`CN(Cc1ccc2cc1CCc1cncc(c1)Nc1ncc(Cl)c(n1)N2)CC1CCN(S(=O)(=O)c2ccccc2)CC1` [Example B341, 1-[6-Chloro-2,4,8,18,22-pentaazatetracyclo[14.3.1.1(3,7).1(9,13)]docosa-1(20),3(22),4,6,9(21),10,12,16,18-nonaen-12-yl]-N-methyl-N-{[1-(phenylsulfonyl)piperidin-4-yl]methyl}methanamine tris(trifluoroacetate)] gave an IC50 (TYK2; Table B1) of over 0.4 µM, an IC50 ([1]; Table B1) of 0.146 µM and an IC50 ([2]; Table B1) of over 0.4 µM. The “ALK % of inhibition” value [3, 10] was 27% and the IC50 ([4]; Table B1) was 0.013 µM.

`O=C(CC1CCN(S(=O)(=O)c2cccnc2)CC1)Nc1ccc2cc1CCc1cncc(c1)Nc1ncc(Cl)c(n1)N2` [Example A202, N-[6-Chloro-2,4,8,18,22-pentaazatetracyclo[14.3.1.1(3,7).1(9,13)]docosa-1(20),3(22),4,6,9(21),10,12,16,18-nonaen-12-yl]-2-[1-(pyridin-3-ylsulfonyl)piperidin-4-yl]acetamide tris(trifluoroacetate)] showed an IC50 (TYK2) of 0.15 µM, an IC50 [1, 5] of 0.014 µM and an IC50 [2, 6] of over 0.2 µM. The “ALK % of inhibition” value [3, 7] was 42% and the IC50 [4, 8] was 0.0007 µM.

In the case of `CNC(=O)Nc1ccc2cc1CCc1cccc(c1)Nc1ncc(Cl)c(n1)N2` [Example B114, N-[6-Chloro-2,4,8,22-tetraazatetracyclo[14.3.1.1(3,7).1(9,13)]docosa-1(20), 3(22),4,6,9(21),10,12,16,18-nonaen-12-yl]-N′-methylurea trifluoroacetate], the IC50 (TYK2; Table B1) is reported as 0.0054 µM, the IC50 ([1]; Table B1) is reported as 0.0029 µM and the IC50 ([2]; Table B1) is reported as 0.013 µM. The “ALK % of inhibition” value [3, 9] was 24% and the IC50 ([4]; Table B1) was 0.00081 µM.

For `O=C(CC1CCN(C(=O)Nc2ccccc2)C1)Nc1ccc2cc1CCc1cncc(c1)Nc1ncc(Cl)c(n1)N2` (centres unmarked) [Example A92, 3-(2-{[6-Chloro-2,4,8,18,22-pentaazatetracyclo[14.3.1.1(3,7).1(9,13)]docosa-1(20),3(22),4,6,9(21),10,12,16,18-nonaen-12-yl]amino}-2-oxoethyl)-N-phenylpyrrolidine-1-carboxamide bis(trifluoroacetate)], the IC50 (TYK2) was 0.021 µM, the IC50 [1, 5] was 0.0061 µM and the IC50 [2, 6] was 0.079 µM. For the same compound, the “ALK % of inhibition” value [3, 7] was 61% and the IC50 [4, 8] was 0.0014 µM.

`O=C(Nc1ccc2cc1CCc1cccc(c1)Nc1ncc(Cl)c(n1)N2)[C@@H]1CCN(C(=O)NC2CCCC2)C1` [Example A63, (3R)—N(3)-[6-Chloro-2,4,8,22-tetraazatetracyclo[14.3.1.1(3,7).1(9,13)]docosa-1(20),3(22),4,6,9(21),10,12,16,18-nonaen-12-yl]-N(1)-cyclopentylpyrrolidine-1,3-dicarboxamide trifluoroacetate] showed an IC50 (TYK2) of 0.013 µM, an IC50 [1, 5] of 0.0025 µM and an IC50 [2, 6] of 0.0026 µM. For the same compound, the “ALK % of inhibition” value [3, 7] was 29% and the IC50 [4, 8] was 0.009 µM.

In the case of `N#Cc1ccccc1S(=O)(=O)Nc1cc2cc(c1)Nc1nc(ncc1Cl)Nc1cccc(c1)CC2` [Example B216, N-[6-Chloro-2,4,8,22-tetraazatetracyclo[14.3.1.1(3,7).1(9,13)]docosa-1(20),3(22),4,6,9(21),10,12,16,18-nonaen-11-yl]-2-cyanobenzenesulfonamide trifluoroacetate], the IC50 (TYK2; Table B1) is reported as 0.066 µM, the IC50 ([1]; Table B1) is reported as 0.029 µM and the IC50 ([2]; Table B1) is reported as 0.166 µM. For the same compound, the “ALK % of inhibition” value [3, 9] was 1.3% and the IC50 ([4]; Table B1) was 0.048 µM.

`O=C(COc1ccc2cc1CCc1cccc(c1)Nc1ncc(Cl)c(n1)N2)N1CCN(C(=O)Nc2ccccc2)CC1` [Example A13, 4-({[6-Chloro-2,4,8,22-tetraazatetracyclo[14.3.1.1(3,7).1(9,13)]docosa-1(20),3(22),4,6,9(21),10,12,16,18-nonaen-12-yl]oxy}acetyl)-N-phenylpiperazine-1-carboxamide trifluoroacetate] showed an IC50 (TYK2) of 0.042 µM, an IC50 [1, 5] of 0.0026 µM and an IC50 [2, 6] of 0.044 µM. For the same compound, the “ALK % of inhibition” value [3, 7] was 20% and the IC50 [4, 8] was 0.001 µM.

Compound `N#CC1(c2ccccc2)CCN(C(=O)Nc2ccc3cc2CCc2cncc(c2)Nc2ncc(Cl)c(n2)N3)CC1` [Example B322, N-[6-Chloro-2,4,8,18,22-pentaazatetracyclo[14.3.1.1(3,7).1(9,13)]docosa-1(20),3(22),4,6,9(21),10,12,16,18-nonaen-12-yl]-4-cyano-4-phenylpiperidine-1-carboxamide bis(trifluoroacetate)] has an IC50 (TYK2; Table B1) of 0.16 µM, an IC50 ([1]; Table B1) of 0.313 µM and an IC50 ([2]; Table B1) of over 0.4 µM. The “ALK % of inhibition” value [3, 10] was 74% and the IC50 ([4]; Table B1) was 0.032 µM.
